The values below are quoted from earlier work in patent US6316473A, “Two surfactant-containing medicinal composition” (Fujisawa Pharmaceutical Co., Ltd., priority 1997, dated 2001).

Each structure is given as a SMILES string.

For this data set the following is noted: stated as well known.

With `C=CC[C@@H]1/C=C(\C)C[C@H](C)C[C@H](OC)[C@H]2O[C@@](O)(C(=O)C(=O)N3CCCC[C@H]3C(=O)O[C@H](/C(C)=C/[C@@H]3CC[C@@H](O)[C@H](OC)C3)[C@H](C)[C@@H](O)CC1=O)[C@H](C)C[C@@H]2OC` [FK506, 17-allyl-1,14-dihydroxy-12-[2-(4-hydroxy-3-methoxycyclohexyl)-1-methylvinyl]-23,25-dimethoxy-13,19,21,27-tetramethyl-11,28-dioxa-4-azatricyclo[22.3. 1.0 4,9]octacos-18-ene-2,3,10,16-tetraone], the solubility in water entry is “only sparingly soluble in water”.
